Test results as given in publication PMC3366211, “Leishmanicidal Activity of Nine Novel Flavonoids from Delphinium staphisagria” (The Scientific World Journal, 2012).

Tests used:
J774.2 macrophages = assay: Cytotoxicity test for macrophages (flow cytometry); type: cell-based, BALB/c rat; conditions: Mus musculus, J774.2, 72 h, J774.2 macrophages after 72 h of culture; read-out: Macrophage toxicity IC50
Method: J774.2 macrophages (ECACC number 91051511) were originally obtained from a tumour in a female BALB/c […] in 1968. The cytotoxicity test for macrophages was performed according to the methodology of González et al.. After 72 hours of treatment, cell viability was determined by flow cytometry. Thus, 100 μL/well of propidium iodide solution ([…]) was added and incubated for 10 min at 28°C in darkness. Afterwards, 100 μL/well of fluorescein diacetate (100 ng/mL) was added and incubated under the same conditions. Finally, the cells were recovered by centrifugation at 400 g for 10 min and the precipitate washed with phosphate buffered saline (PBS). Flow cytometric analysis was performed with a FACSVantage flow cytometer (Becton Dickinson). The percentage viability was calculated in comparison with the control culture. The IC50 was calculated using linear regression analysis from the Kc values of the concentrations employed.

L. infantum = assay: Infection assay in J774.2 macrophages; type: cell-based, Leishmania infantum; conditions: IC25 concentration; for infection rate decrease, percentage of inhibition capacity: with respect to control
Method: (§1) J774.2 macrophage cells were grown under the same conditions expressed in amastigote forms assay during two days. Afterwards, the cells were infected in vitro with promastigote forms of L. infantum and L. braziliensis, at a ratio of 10 : 1. The drugs (IC25 concentrations) were added immediately after infection and were incubated for 12 hours at 37°C in 5% CO2. The nonphagocytosed parasites and the drugs were removed by washing, and then the infected cultures were grown for 10 days in fresh medium. Fresh culture medium was added every 48 h. The drug activity was determined from the percentage of infected cells and the number of amastigotes per infected cell (in treated and untreated cultures) in methanol-fixed and Giemsa-stained preparations. The percentage of infected cells and the mean number of amastigotes per infected cell were determined by analyzing 200 host cells distributed in randomly chosen microscopic fields. Values are the average of three separate determinations.

[1] = test system: L. infantum promastigotes; assay: Metabolite excretion (1H-NMR); type: cell-based, Leishmania infantum; conditions: IC25, 96 hours, vs control
Method: (§2) Cultures of L. infantum and L. braziliensis promastigotes (initial concentration 5 × 10^5 cells/mL) received IC25 concentrations of the compounds (except for control cultures). After incubation for 96 hours at 28°C, the cells were centrifuged at 400 g for 10 min. Then supernatants were collected to determine the excreted metabolites using ^1H-NMR, and, eventually, chemical displacements were expressed in parts per million (ppm), using sodium 2,2-dimethyl-2-silapentane-5-sulphonate as the reference signal. The chemical displacements used to identify the respective metabolites were consistent with those described by Fernández-Becerra et al.

[2] = test system: L. infantum promastigotes; assay: Ultrastructural alterations (TEM); type: cell-based, Leishmania infantum; conditions: IC25, 96 hours
Method: (§3) The parasites were cultured at a density of 5 × 10^5 cells/mL in MTL medium, and the cultures contained drugs at the IC25 concentration.
(§4) After 96 hours, those cultures were centrifuged at 400 g for 10 min, and the pellets produced were washed in PBS and then mixed with 2% (v/v) P-formaldehyde-glutaraldehyde in 0.05 M cacodylate buffer (pH 7.4) for 4 hours at 4°C. After that, the pellets were prepared for TEM employing the technique of González et al..

[3] = test system: L. braziliensis promastigotes; assay: Metabolite excretion (1H-NMR); type: cell-based, Leishmania braziliensis; conditions: IC25, 96 hours, vs control
Method: as §2

L. braziliensis = assay: Infection assay in J774.2 macrophages; type: cell-based, Leishmania braziliensis; conditions: IC25 concentration; for infection rate decrease, percentage of inhibition capacity: with respect to control
Method: as §1

[4] = test system: L. infantum intracellular amastigote forms; assay: Intracellular amastigote forms assay in J774.2 macrophages; type: cell-based, Leishmania infantum; conditions: for SI Intracellular amastigote forms / number of times that compound SI exceeds the reference drug SI, Intracellular amastigote forms: L. infantum; for SI Intracellular amastigote forms: IC50 macrophages/IC50 parasite form; for number of times that compound SI exceeds the reference drug SI, Intracellular amastigote forms: in brackets, reference Glucantime; for IC50: Leishmania infantum, L. infantum in J774.2 macrophages, 72 h
Method: (§5) Cells were seeded at a density of 1 × 10^4 cells/well in 24-well microplates (Nunc) with rounded coverslips on the bottom and cultured for 2 days. Afterwards the cells were infected in vitro with promastigote forms of L. infantum and L. braziliensis, at a ratio of 10 : 1 during 24 hours. The non-phagocytosed parasites were removed by washing, and then the drugs (at 1, 10, 25, 50, 100 μM) were added. Macrophages with the drugs were incubated for 72 hours at 37°C in 5% CO2.
(§6) Drug activity was determined on the basis of number of amastigotes in treated and untreated cultures in methanol-fixed and Giemsa-stained preparations. The number of amastigotes was determined by analyzing 200 host cells distributed in randomly chosen microscopic fields. The antileishmanial effect is expressed as the IC50 values are the means of three separate determinations.

[5] = test system: L. braziliensis promastigote forms; assay: Promastigote forms assay; type: cell-based, Leishmania braziliensis; conditions: for SI Promastigote forms: IC50 macrophages/IC50 parasite form; for IC50: Leishmania braziliensis, 72 h; for number of times that compound SI exceeds the reference drug SI, Promastigote forms: in brackets, reference Glucantime
Method: (§7) The compounds obtained were dissolved in the culture medium, at dosages of 100, 50, 25, 10, and 1 μM. The effects of each compound against promastigote forms were tested at 72 hours using a Neubauer haemocytometric chamber. The antileishmanial effect is expressed as the IC50, that is, the concentration required to give 50% inhibition, calculated by linear regression analysis from the Kc values of the concentrations employed.

[6] = test system: L. braziliensis axenic amastigote forms; assay: Axenic amastigote forms assay; type: cell-based, Leishmania braziliensis; conditions: for SI Axenic amastigote forms: IC50 macrophages/IC50 parasite form; for IC50: Leishmania braziliensis, 48 hours per method (72 h); for number of times that compound SI exceeds the reference drug SI, Axenic amastigote forms: in brackets, reference Glucantime
Method: (§8) Axenic amastigotes forms of L. infantum and L. braziliensis were cultured following the methodology described previously by Moreno et al.. Thus, promastigote transformation to amastigotes was obtained after three days of culture in M199 medium (Invitrogen, Leiden, The Netherlands) supplemented with 10% heat-inactivated FCS, 1 g/L β-alanine, 100 mg/L L-asparagine, 200 mg/L sacarose, 50 mg/L sodium pyruvate, 320 mg/L malic acid, 40 mg/L fumaric acid, 70 mg/L succinic acid, 200 mg/L α-ketoglutaric acid, 300 mg/L citric acid, 1.1 g/L sodium bicarbonate, 5 g/L MES, 0.4 mg/L hemin, and 10 mg/L gentamicin pH 5.4 at 37°C. The effect of each compound against axenic amastigotes forms was tested at 48 hours using a Neubauer haemocytometric chamber. The antileishmanial effect is expressed as the IC50.

[7] = test system: L. braziliensis intracellular amastigote forms; assay: Intracellular amastigote forms assay in J774.2 macrophages; type: cell-based, Leishmania braziliensis; conditions: for SI Intracellular amastigote forms / number of times that compound SI exceeds the reference drug SI, Intracellular amastigote forms: L. braziliensis; for SI Intracellular amastigote forms: IC50 macrophages/IC50 parasite form; for number of times that compound SI exceeds the reference drug SI, Intracellular amastigote forms: in brackets, reference Glucantime; for IC50: Leishmania braziliensis, L. braziliensis in J774.2 macrophages, 72 h
Method: as §5, §6

[8] = test system: L. infantum axenic amastigote forms; assay: Axenic amastigote forms assay; type: cell-based, Leishmania infantum; conditions: for SI Axenic amastigote forms: IC50 macrophages/IC50 parasite form; for IC50: Leishmania infantum, 48 hours per method (72 h); for number of times that compound SI exceeds the reference drug SI, Axenic amastigote forms: in brackets, reference Glucantime
Method: as §8

[9] = test system: L. braziliensis promastigotes; assay: Ultrastructural alterations (TEM); type: cell-based, Leishmania braziliensis; conditions: IC25, 96 hours
Method: as §3, §4

[10] = test system: L. infantum promastigote forms; assay: Promastigote forms assay; type: cell-based, Leishmania infantum; conditions: for SI Promastigote forms: IC50 macrophages/IC50 parasite form; for times SI exceeds the reference drug SI (all forms): extracellular and intracellular forms; for times SI exceeds the reference drug SI (all forms) / number of times that compound SI exceeds the reference drug SI, Promastigote forms: reference Glucantime; for number of times that compound SI exceeds the reference drug SI, Promastigote forms: in brackets; for IC50: Leishmania infantum, 72 h
Method: as §7

| IC50 [5] [µM] | IC50 [6] [µM] | IC50 [7] [µM] | SMILES | IC50 (J774.2 macrophages) [µM] | decrease of average number of amastigotes per infected macrophage cell (L. infantum) [%] | infection rate decrease, percentage of inhibition capacity (L. infantum) [%] | change in excreted catabolites [1] | ultrastructural alterations by TEM [2] | change in excreted catabolites [3] | decrease of average number of amastigotes per infected macrophage cell (L. braziliensis) [%] | infection rate decrease, percentage of inhibition capacity (L. braziliensis) [%] | SI Intracellular amastigote forms [4] | number of times that compound SI exceeds the reference drug SI, Intracellular amastigote forms [4] | SI Promastigote forms [5] | number of times that compound SI exceeds the reference drug SI, Promastigote forms [5] | SI Axenic amastigote forms [6] | number of times that compound SI exceeds the reference drug SI, Axenic amastigote forms [6] | SI Intracellular amastigote forms [7] | number of times that compound SI exceeds the reference drug SI, Intracellular amastigote forms [7] | SI Axenic amastigote forms [8] | also measured |
| --- | --- | --- | --- | --- | --- | --- | --- | --- | --- | --- | --- | --- | --- | --- | --- | --- | --- | --- | --- | --- | --- |
| 29 ± 1.5 | 25.5 ± 0.7 | 20.1 ± 1.7 | CC(=O)O[C@H]1[C@H](Oc2c(-c3ccc(O)c(O)c3)oc3cc(O[C@@H]4O[C@@H](C)[C@H](O)[C@@H](O)[C@H]4O)cc(O)c3c2=O)O[C@H](CO)[C@@H](O)[C@@H]1O [Compound 8, 2′′-acetylpetiolaroside] | > 1000 | 78 | 95 | an increase in the excretion of succinate, and acetate, followed by malate, alanine, lactate and ethanol | many of the parasites adopted distorted shapes with distorted cytoplasm | decreases in the excretion of acetate | 82 | 88 | >31.2 | 62 | >34.5 | 58 | >39.2 | 78 | >49.8 | 100 | >54.3 | IC50 [4]: 32.1 ± 2 µM; IC50 [8]: 18.4 ± 1.3 µM; number of times that compound SI exceeds the reference drug SI, Axenic amastigote forms [8]: 91; ultrastructural alterations by TEM [9]: induced changes in the shape of parasites, with them showing completely altered forms; SI Promastigote forms [10]: 52.4; times SI exceeds the reference drug SI (all forms) [10]: more than 50 times; number of times that compound SI exceeds the reference drug SI, Promastigote forms [10]: 66 |
| 31.3 ± 3 | 28 ± 1.6 | 30.4 ± 2.7 | CC(=O)OC[C@H]1O[C@@H](Oc2cc(OC(C)=O)c3c(=O)c(O[C@@H]4O[C@H](COC(C)=O)[C@@H](OC(C)=O)[C@H](OC(C)=O)[C@H]4OC(C)=O)c(-c4ccc(OC(C)=O)cc4)oc3c2)[C@H](OC(C)=O)[C@@H](OC(C)=O)[C@@H]1OC(C)=O [Compound 6] | > 1000 | 24 | 71 | an increase in the excretion of succinate, and acetate, followed by malate, alanine, lactate and ethanol | induced empty vacuoles, lipid vacuoles, and a large number of electrodense vesicles | decreases in the excretion of acetate | 69 | 82 | 24.8 | 50 | >31.9 | 53 | >35.7 | 71 | >32.9 | 66 | >32.8 | IC50 [8]: 30.5 ± 2.3 µM; number of times that compound SI exceeds the reference drug SI, Axenic amastigote forms [8]: 55; SI Promastigote forms [10]: >43.3; IC50 [10]: 23.1 ± 4.6 µM; times SI exceeds the reference drug SI (all forms) [10]: more than 50 times; number of times that compound SI exceeds the reference drug SI, Promastigote forms [10]: 54 |
| 21.1 ± 1.7 | 19.5 ± 0.8 | 33.9 ± 3.5 | C[C@H]1O[C@H](Oc2cc(O)c3c(=O)c(O[C@@H]4O[C@H](CO)[C@@H](O)[C@H](O)[C@H]4O)c(-c4ccc(O)c(O)c4)oc3c2)[C@@H](O)[C@@H](O)[C@@H]1O [Compound 7, petiolaroside] | > 1000 | 49 | 77 | an increase in the production of malate, succinate, ethanol, and lactate, but a decrease of excreted acetate and alanine levels | no induction of substantial alterations | decreases in the excretion of acetate | 55 | 69 | >36.0 | 72 | >47.4 | 79 | >51.3 | 103 | >29.5 | 59 | >51.5 | IC50 [4]: 27.8 ± 1.4 µM; IC50 [8]: 19.4 ± 1.4 µM; number of times that compound SI exceeds the reference drug SI, Axenic amastigote forms [8]: 86; ultrastructural alterations by TEM [9]: All these changes occurred; SI Promastigote forms [10]: >40.8; IC50 [10]: 24.5 ± 1.1 µM; times SI exceeds the reference drug SI (all forms) [10]: more than 50 times; number of times that compound SI exceeds the reference drug SI, Promastigote forms [10]: 51 |
